*: point of attachment. Cbz = O=C(OCc1ccccc1)*; CH2F = FC*

Here are results for 5 compounds from article PMC3899824 (Investigational new drugs, 2013).

One experiment concerns tubulin. The experiment in a line: Cell-free tubulin polymerization assay. The settings on record: 10 μM, 60m at 340 nm. It is filed as biochemical.
A further experiment deals with 8226/Dox40 cell line. The settings on record: no reference given; cited from earlier work.
Experiment [1] has as its system 8226/S multiple myeloma cells. The settings on record: colcemid-treated, concentration not given.
In experiment [2] the test system is MM.1S multiple myeloma cells. The settings on record: colcemid-treated, concentration not given.
Experiment [3] deals with MM.1S multiple myeloma cells. The experiment is described as follows: Apoptosis by AnnexinV/PI flow cytometry, MM.1S. Type of experiment: cell-based, human. (In flow cytometry, cells or beads pass a laser one at a time.)
Experiment [4] concerns 8226/S multiple myeloma cells. The experiment in a line: Apoptosis by AnnexinV/PI flow cytometry, 8226/S. It is filed as cell-based, human.
[5] abbreviates: 5 μM caspase 8 inhibitor 30m before 200 nM PC-046 24h.
The mark [6] stands for this setting: 5 μM pan-caspase inhibitor 30m before 200 nM PC-046 24h.

On to `CC[C@]1(O)C[C@H]2CN(CCc3c([nH]c4ccccc34)[C@@](C(=O)OC)(c3cc4c(cc3OC)N(C=O)[C@H]3[C@@](O)(C(=O)OC)[C@H](OC(C)=O)[C@]5(CC)C=CCN6CC[C@]43[C@@H]65)C2)C1` [vincristine], for which, in the experiment on tubulin, the “effect on tubulin polymerization” value is “a reduction in the amount of tubulin polymer formed”. In the experiment with 8226/Dox40 cell line, the “resistance conferred by ABCB1 (Pgp/MDR1)” value was “approximately 200 fold”.
For the compound `CN[C@H]1CCc2cc(OC)c(OC)c(OC)c2-c2ccc(OC)c(=O)cc21` [colcemid, reference compound], the “% positive histone H3 cells, mean (SEM)” value is reported as 39.40 (1.48) % in experiment [1] and 12.54 (0.73) % in experiment [2].
For the compound Cbz-IETD-CH2F, the AnnexinV-positive cells in experiment [3] (setting [5]) was 32.6%; in experiment [4] (setting [5]), 25.1%.
Turning to `CC(C)[C@H](NC(=O)c1ccc2ccccc2n1)C(=O)N[C@@H](CC(=O)O)C(=O)COc1c(F)cccc1F` [Q-VD-OPh], the results for the AnnexinV-positive cells in experiment [3] (setting [6]) and in experiment [4] (setting [6]) were 12.8% and 13.5%, respectively.
Turning to `CC(=O)O[C@H]1C(=O)[C@@]2(C)[C@H]([C@H](OC(=O)c3ccccc3)[C@]3(O)C[C@H](OC(=O)[C@H](O)[C@@H](NC(=O)c4ccccc4)c4ccccc4)C(C)=C1C3(C)C)[C@]1(OC(C)=O)CO[C@@H]1C[C@@H]2O` [paclitaxel], in the experiment with tubulin, the “effect on tubulin polymerization” value was “stabilized tubulin polymerization”.
